This note sets out measurements from patent EP0565634B1, “ANGIOTENSIN II RECEPTOR BLOCKING COMPOSITIONS” (SMITHKLINE BEECHAM CORPORATION, priority 1990, dated 1992).

For assay [1], the target named is vascular angiotensin II receptors. Nature of the assay: Radioligand binding assay, displacement of 125I-angiotensin II. To be noted: particular fraction from rat mesenteric arteries, 80 pM 125I-angiotensin II, 1 hour at 25°C. The protocol:
(§1) Angiotensin II antagonist activity of the compounds of Formula (I) is assessed by in vitro and in vivo methods. In vitro antagonist activity is determined by the ability of the compounds to compete with ^125I-angiotensin II for binding to vascular angiotensin II receptors and by their ability to antagonize the contractile response to angiotensin II in the isolated rabbit aorta. In vivo activity is evaluated by the efficacy of the compounds to inhibit the pressor response to exogenous angiotensin II in conscious rats and to lower blood pressure in a rat model of renin dependent hypertension.
The radioligand binding assay is a modification of a method previously described in detail (Gunther et al., Circ. Res. 47:278, 1980). A particular fraction from rat mesenteric arteries is incubated in Tris buffer with 80 pM of ^125I-angiotensin II with or without angiotensin II antagonists for 1 hour at 25°C. The incubation is terminated by rapid filtration and receptor bound ^125I-angiotensin II trapped on the filter is quantitated with a gamma counter. The potency of angiotensin II antagonists is expressed as the IC50 which is the concentration of antagonist needed to displace 50% of the total specifically bound angiotensin II. The IC50 of (E)-3-[2-n-butyl-1-{(4-carboxyphenyl)methyl}-1H-imidazol-5-yl]-2-(2-thienyl)methyl-2-propenoic acid is about 1.0 nM.

Assay [2] relates to pressor response to exogenous angiotensin II. As to the kind of experiment: Inhibition of pressor response to angiotensin II in conscious rats. As to conditions: Rattus norvegicus, intravenous injections of 250 mg/kg angiotensin II, read-out: IC50 (dose needed to produce 50% inhibition of the control response to angiotensin II). Type of assay: in vivo. As for the experimental part: as §1
Rats are prepared with indwelling femoral arterial and venous catheters and a stomach tube (Gellai et al., Kidney Int. 15:419, 1979). Two to three days following surgery the rats are placed in a restrainer and blood pressure is continuously monitored from the arterial catheter with a pressure transducer and recorded on a polygraph. The change in mean arterial pressure in response to intravenous injections of […] angiotensin II is compared at various time points prior to and following the administration of the compounds intravenously or orally at doses of 0.1 to 300 mg/kg. The dose of compound needed to produce 50% inhibition of the control response to angiotensin II (IC50) is used to estimate the potency of the compounds.

For a further assay, the system named is mean arterial pressure. Nature of the assay: Antihypertensive activity in renal artery ligated, renin-dependent hypertensive conscious rats. Type of assay: in vivo. As to conditions: Rattus norvegicus, po, 192 h, orally, seven to eight days following ligation, read-out: IC30 (dose needed to reduce mean arterial pressure by 30 mmHg). The protocol:
as §1
The antihypertensive activity of the compounds is measured by their ability to reduce mean arterial pressure in conscious rats made renin-dependent hypertensive by ligation of the left renal artery (Cangiano et al;., J. Pharmacol. Exp. Ther. 208:310, 1979). Renal artery ligated rats are prepared with indwelling catheters as described above. Seven to eight days following renal artery ligation, the time at which plasma renin levels are highest, the conscious rats are placed in restrainers and mean arterial pressure is continuously recorded prior to and following the administration of the compounds intravenously or orally. The dose of compound needed to reduce mean arterial pressure by 30 mmHg (IC30) is used as an estimate of potency. […]

Where two headings read alike, the source gives them in different places.

Regarding `CCCCc1ncc(/C=C(\Cc2cccs2)C(=O)O)n1Cc1ccc(C(=O)O)cc1` [(E)-3-[2-n-butyl-1-{(4-carboxyphenyl)methyl}-1H-imidazol-5-yl]-2-(2-thienyl)methyl-2-propenoic acid], in assay [1], the IC50 was roughly 1 nM. For the same compound, the ED50 in assay [2] (i.v.) is roughly 0.1 mg/kg; in assay [2] (po, orally), roughly 5.5 mg/kg. The ED (30 mmHg) in the assay on mean arterial pressure was roughly 10 mg/kg.
